Source: patent US20220088040A1, “Use of System XC-Inhibitor for Treating Statin-Induced Myalgia” (Exerkine Corporation, priority 2017, published 2022)

Columns and labels:
C2C12 myotubes = experiment: Glutamate efflux from C2C12 myotubes (Amplex Red glutamic acid assay of culture media); format: cell-based, murine; settings: for effect on glutamate efflux caused by atorvastatin: sulfasalazine 20 μM, cysteamine bitartrate 100 and 300 μM, vitamin E 100 μM, coenzyme Q10 50 μM; for glutamate efflux levels: co-treated with atorvastatin 5 μM and sulfasalazine 20 μM
system Xc- subunit xCT = experiment: xCT protein content in C2C12 myotubes by chemiluminescent immunoblot; format: cell-based, murine; settings: atorvastatin 5 μM
[1] = system: primary human fibroblasts; experiment: Glutamate efflux from primary human fibroblasts; format: cell-based; settings: statin (atorvastatin 5 μM) (FIG. 3B)
Sprague Dawley rats = experiment: Extramyocellular glutamate in rat gastrocnemius muscle by interstitial microdialysis; format: in vivo; settings: 10 days, muscle dialysate (FIG. 6)
primary human myoblasts = settings: co-treatment of statin (atorvastatin 5 μM) with sulfasalazine 20 μM (FIG. 3A)
[2] = 5 μM atorvastatin, combination 100 μM vitamin E + 35 μM coenzyme Q10, N-acetylcysteine 5 mM (FIG. 4)
[3] = 7.5 μM atorvastatin, combination 100 μM vitamin E + 35 μM coenzyme Q10, N-acetylcysteine 5 mM (FIG. 5)

| Molecule | effect on glutamate efflux caused by atorvastatin (C2C12 myotubes; [2]) | effect on glutamate efflux caused by atorvastatin (C2C12 myotubes; [3]) | further results |
| --- | --- | --- | --- |
| COc1c(O)c(C)c(C/C=C(\C)CC/C=C(\C)CC/C=C(\C)CC/C=C(\C)CC/C=C(\C)CC/C=C(\C)CC/C=C(\C)CC/C=C(\C)CC/C=C(\C)CCC=C(C)C)c(O)c1OC [ubiquinol] | mitigated | mitigated |  |
| CC(C)c1c(C(=O)Nc2ccccc2)c(-c2ccccc2)c(-c2ccc(F)cc2)n1CC[C@@H](O)C[C@@H](O)CC(=O)O [atorvastatin] |  |  | elevated xCT protein level (system Xc- subunit xCT; 24 hour time point (FIG. 1)): still present; elevation in xCT abundance (system Xc- subunit xCT; after 12 hours, vs vehicle (FIG. 1)): approximately 2 fold; extracellular glutamate concentrations [1]: no changes; increase in extramyocellular glutamate concentrations compared with the Control group (Sprague Dawley rats; atorvastatin 40 mg/kg/day oral): 21% |
| vitamin E | mitigated | mitigated |  |
| O=C(O)c1cc(/N=N/c2ccc(S(=O)(=O)Nc3ccccn3)cc2)ccc1O [sulfasalazine] | inhibited | inhibited | glutamate efflux levels (C2C12 myotubes; 6 hour time point (FIG. 2)): initial increase; glutamate efflux levels (C2C12 myotubes; 12 hour to 24 hour time points (FIG. 2)): declined to baseline levels; glutamate efflux (C2C12 myotubes; sulfasalazine alone 20 μM, throughout the 0-24 h treatment period (FIG. 2)): around those of baseline values; extramyocellular glutamate concentrations, lower than Control (Sprague Dawley rats; atorvastatin 40 mg/kg/day with sulfasalazine 200 mg/kg/day oral): 19%; glutamate efflux / extracellular glutamate levels (primary human myoblasts): blocked this efflux and further reduced extracellular glutamate levels to those below the vehicle control group |
| CC(=O)N[C@@H](CS)C(=O)O [N-acetylcysteine] | substantially increased | substantially increased |  |
| NCCS.O=C(O)C(O)C(O)C(=O)O (stereo not shown) [Cysteamine bitartrate] | mitigated | mitigated |  |
